Residue numbers refer to the chain shown, from its start. Several values for one entry are separate records, joined by “and”; a condition that tells them apart may be missing. Equal entries are not always repeated. Entries after “also recorded” stand apart in the source; their conditions may differ. Where two headings read alike, the source gives them in different places.
Tests used:
∆-hDAT I390L = ∆-hDAT I390L (Homo sapiens, UniProt Q01959, I248Y/I390L); details: [3H]dopamine uptake
Experimental: (§1) Replicates containing 10 µM of GBR12909 were used to measure background. […] Uptake was quenched by adding 50 µl of ice-cold inhibition buffer.
(§2) Specific counts were obtained by subtracting background counts (averaged from technical triplicates) from total counts. […] Data were collected from three independent experiments (n = 3 biological replicates starting from transduction), each performed with three technical replicates.

∆-hDAT D385N = ∆-hDAT D385N (Homo sapiens, UniProt Q01959, D385N/I248Y); details: D385N versus ∆-hDAT
Experimental: as §1, §2

full-length hDAT = full-length hDAT (Homo sapiens, UniProt Q01959); details: background not subtracted
Experimental: (§3) HEK293 GnTI^− cells were transduced with Δ-hDAT and full-length hDAT P2 viruses, propagated in SF9 cells using standard methods as described in ‘Protein expression and purification’, at a cell density of 2.5 – 3.0 × 10^6 cells per ml, followed by incubation at 37 °C for 6 h. After 6 h, sodium butyrate was added to a final concentration of 10 mM, and the cells were transferred to 30 °C with 8% CO2 for 6 h. The transduced cells were seeded into 96-well poly-D-lysine coated Isoplates (Perkin Elmer) at a density of 100,000 cells per well. The plates were then incubated at 30 °C for 12–16 h before the uptake assay was initiated. The cells were initially washed with 37 °C uptake assay buffer composed of 25 mM HEPES pH 7.4, 120 mM NaCl, 5 mM KCl, 1.2 mM CaCl2, 1.2 mM MgSO4, 5 mM D-glucose, 1 mM ascorbic acid, and 1 µM Ro 41-0960, followed by incubation in 50 µl of the same buffer for 10 min. Replicates with 10 µM of GBR12909 in the uptake assay buffer were used to measure background. […] The uptake reaction was stopped by adding 100 µl of chilled inhibition buffer, uptake assay buffer supplemented with 2.5 µM GBR12909. Two consecutive washes with 100 µl of inhibition buffer were carried out, followed by resuspension of cells in 100 µl of 1% Triton X-100. Finally, 100 µl of liquid scintillation cocktail was added to each well and [^3H] counts were measured using a MicroBeta2 (Perkin Elmer). Background counts from three replicates were averaged and subtracted from total counts.

∆-hDAT = ∆-hDAT (Homo sapiens, UniProt Q01959, I248Y); details: 10 µM MRS7292, [3H]DA 0.185 uM, background not subtracted
Experimental: as §3

∆-hDAT V364I = ∆-hDAT V364I (Homo sapiens, UniProt Q01959, I248Y/V364I); details: [3H]dopamine uptake, Figure 2d raw data
Experimental: as §1, §2

∆-hDAT W84A = molecular target: T1, ∆-hDAT W84A (Homo sapiens, UniProt Q01959, I248Y/W84A); details: for W84A total (raw [3H]dopamine uptake counts): Extended Data Fig 7c source data, replicates 1-3
T1 sequence (Q01959 57-620 W84A/I248Y limits assumed): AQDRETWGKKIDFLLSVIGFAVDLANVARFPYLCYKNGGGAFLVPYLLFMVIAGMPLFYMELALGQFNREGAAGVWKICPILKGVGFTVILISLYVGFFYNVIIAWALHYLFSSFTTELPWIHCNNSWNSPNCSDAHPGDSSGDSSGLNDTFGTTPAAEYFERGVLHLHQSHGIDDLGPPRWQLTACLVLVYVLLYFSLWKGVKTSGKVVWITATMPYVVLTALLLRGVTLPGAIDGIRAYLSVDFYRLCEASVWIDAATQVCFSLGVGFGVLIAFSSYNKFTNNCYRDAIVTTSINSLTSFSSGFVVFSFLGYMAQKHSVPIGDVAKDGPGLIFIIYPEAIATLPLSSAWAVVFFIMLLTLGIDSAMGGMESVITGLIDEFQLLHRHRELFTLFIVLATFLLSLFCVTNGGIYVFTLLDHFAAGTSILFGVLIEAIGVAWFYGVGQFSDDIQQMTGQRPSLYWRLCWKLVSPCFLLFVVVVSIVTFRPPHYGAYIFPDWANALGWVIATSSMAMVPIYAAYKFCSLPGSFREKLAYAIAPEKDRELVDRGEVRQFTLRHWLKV
Experimental: as §1, §2

∆-hDAT V364I/I390L = ∆-hDAT V364I/I390L (Homo sapiens, UniProt Q01959, I248Y/I390L/V364I); details: MRS7292 10 µM; [3H]dopamine uptake, Figure 2d raw data
Experimental: as §1, §2

∆-hDAT D385A = ∆-hDAT D385A (Homo sapiens, UniProt Q01959, D385A/I248Y); details: MRS7292 30 µM; [3H]dopamine uptake, Figure 2d raw data
Experimental: as §1, §2

∆-hDAT W84C = molecular target: T2, ∆-hDAT W84C (Homo sapiens, UniProt Q01959, I248Y/W84C); details: for W84C total (raw [3H]dopamine uptake counts): Extended Data Fig 7c source data, replicates 1-3
T2 sequence (Q01959 57-620 W84C/I248Y limits assumed): T1 sequence (Q01959 57-620 W84A/I248Y limits assumed) with A28C
Experimental: as §1, §2

∆-hDAT Y394F = ∆-hDAT Y394F (Homo sapiens, UniProt Q01959, I248Y/Y394F); details: for Y394F total (raw [3H]dopamine uptake counts): Extended Data Fig 7c source data, replicates 1-3
Sequence of ∆-hDAT Y394F (Q01959 57-620 I248Y/Y394F limits assumed): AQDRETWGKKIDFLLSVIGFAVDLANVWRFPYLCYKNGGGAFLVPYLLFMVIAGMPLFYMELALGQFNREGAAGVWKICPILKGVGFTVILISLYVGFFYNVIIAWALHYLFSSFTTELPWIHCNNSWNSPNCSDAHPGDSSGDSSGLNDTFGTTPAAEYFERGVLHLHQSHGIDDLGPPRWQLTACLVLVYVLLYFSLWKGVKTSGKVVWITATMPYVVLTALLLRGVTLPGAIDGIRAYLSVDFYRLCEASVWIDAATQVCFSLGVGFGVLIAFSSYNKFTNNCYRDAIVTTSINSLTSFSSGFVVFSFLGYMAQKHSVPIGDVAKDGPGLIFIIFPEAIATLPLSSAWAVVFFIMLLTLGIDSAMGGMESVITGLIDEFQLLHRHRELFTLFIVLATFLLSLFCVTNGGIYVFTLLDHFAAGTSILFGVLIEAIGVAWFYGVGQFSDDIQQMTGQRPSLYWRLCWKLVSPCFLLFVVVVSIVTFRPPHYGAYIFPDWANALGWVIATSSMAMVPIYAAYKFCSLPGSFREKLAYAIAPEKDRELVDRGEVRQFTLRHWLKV
Experimental: as §1, §2

Sequence of full-length hDAT (Q01959 whole entry): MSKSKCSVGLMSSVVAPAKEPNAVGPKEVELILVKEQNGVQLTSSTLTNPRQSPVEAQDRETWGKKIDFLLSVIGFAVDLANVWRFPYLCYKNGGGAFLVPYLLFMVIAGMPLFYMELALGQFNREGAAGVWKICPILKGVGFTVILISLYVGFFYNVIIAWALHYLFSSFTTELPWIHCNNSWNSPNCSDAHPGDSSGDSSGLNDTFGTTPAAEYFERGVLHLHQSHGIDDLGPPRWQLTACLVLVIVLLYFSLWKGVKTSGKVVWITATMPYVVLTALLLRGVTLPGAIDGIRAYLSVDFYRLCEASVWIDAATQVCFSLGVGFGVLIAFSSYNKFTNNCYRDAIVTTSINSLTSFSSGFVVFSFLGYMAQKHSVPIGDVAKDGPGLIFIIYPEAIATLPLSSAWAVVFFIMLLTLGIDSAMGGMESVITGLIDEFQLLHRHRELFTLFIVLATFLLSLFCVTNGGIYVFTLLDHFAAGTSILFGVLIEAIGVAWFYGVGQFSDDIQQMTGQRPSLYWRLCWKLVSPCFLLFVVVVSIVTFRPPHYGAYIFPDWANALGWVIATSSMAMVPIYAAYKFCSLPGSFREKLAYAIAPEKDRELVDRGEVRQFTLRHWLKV
Sequence of ∆-hDAT I390L (Q01959 57-620 I248Y/I390L limits assumed): as the sequence (Q01959 57-620 I248Y/Y394F limits assumed) above, with I334L, F338Y counted along it
Sequence of ∆-hDAT V364I (Q01959 57-620 I248Y/V364I limits assumed): as the sequence (Q01959 57-620 I248Y/Y394F limits assumed) above, with V308I, F338Y counted along it
Sequence of ∆-hDAT D385A (Q01959 57-620 I248Y/D385A limits assumed): as the sequence (Q01959 57-620 I248Y/Y394F limits assumed) above, with D329A, F338Y counted along it
Sequence of ∆-hDAT D385N (Q01959 57-620 I248Y/D385N limits assumed): as the sequence (Q01959 57-620 I248Y/Y394F limits assumed) above, with D329N, F338Y counted along it
Sequence of ∆-hDAT V364I/I390L (Q01959 57-620 I248Y/V364I/I390L limits assumed): as the sequence (Q01959 57-620 I248Y/Y394F limits assumed) above, with V308I, I334L, F338Y counted along it
Sequence of ∆-hDAT (Q01959 57-620 I248Y limits assumed): as the sequence (Q01959 57-620 I248Y/Y394F limits assumed) above, with F338Y counted along it

CNc1nc(C#Cc2ccc(Cl)s2)nc2c1ncn2[C@H]1[C@H](O)[C@H](O)[C@]2(C(=O)OC)C[C@H]12 [MRS7292]
change in IC50 of MRS7292 versus ∆-hDAT (∆-hDAT I390L; I390L mutant): modest increase in the IC50 value; also recorded: increased IC50
I390L total counts (∆-hDAT I390L; MRS7292 30 µM, Figure 2d raw data): 109 counts and 108 counts and 83 counts and 89 counts and 68 counts and 75 counts and 87 counts and 88 counts
effect of mutation on potency of MRS7292 (inhibition of dopamine uptake) (∆-hDAT D385N): retained potency; also recorded: potency of MRS7292 was maintained; also recorded: little effect
[3H]DA Uptake - Full length hDAT, total counts - 10 µM MRS7292 (full-length hDAT; 10 µM MRS7292, [3H]DA 0.0068 uM): 10 cpm and 11 cpm and 8 cpm and 14 cpm and 9 cpm and 16 cpm
[3H]DA Uptake - Full length hDAT, total counts - 10 µM MRS7292 (full-length hDAT; 10 µM MRS7292, [3H]DA 0.061 uM): 13 cpm and 18 cpm and 14 cpm and 10 cpm and 16 cpm and 15 cpm and 19 cpm and 17 cpm
[3H]DA Uptake - Full length hDAT, total counts - 10 µM MRS7292 (full-length hDAT; 10 µM MRS7292, [3H]DA 0.185 uM): 25 cpm and 15 cpm and 20 cpm and 27 cpm and 21 cpm and 23 cpm and 22 cpm
[3H]DA Uptake - Full length hDAT, total counts - 10 µM MRS7292 (full-length hDAT; 10 µM MRS7292, [3H]DA 1.66 uM): 65 cpm and 83 cpm and 90 cpm and 75 cpm and 88 cpm and 55 cpm and 51 cpm and 66 cpm
[3H]DA Uptake - Δ-hDAT, total counts - 10 µM MRS7292 (∆-hDAT): 20 cpm and 17 cpm and 15 cpm and 19 cpm and 12 cpm and 22 cpm
V364I total (∆-hDAT V364I; MRS7292 1e-6 µM): 5751 and 5593 and 5760 and 5223 and 5698 and 5483 and 5457 and 5433
V364I total (∆-hDAT V364I; MRS7292 10 µM): 65 and 56 and 61 and 57 and 59 and 73 and 84 and 89
V364I total (∆-hDAT V364I; MRS7292 30 µM): 24 and 25 and 29 and 37 and 23 and 36 and 26
W84A total (raw [3H]dopamine uptake counts) (∆-hDAT W84A; MRS7292 1e-6 µM): 4895 and 4792 and 4802 and 4600 and 4953 and 4373 and 5070 and 4982 and 5054
W84A total (raw [3H]dopamine uptake counts) (∆-hDAT W84A; MRS7292 0.041 µM): 4749 and 4230 and 4559 and 4747 and 4675 and 5103 and 5266 and 5201 and 5101
W84A total (raw [3H]dopamine uptake counts) (∆-hDAT W84A; MRS7292 0.123 µM): 4930 and 5121 and 4987 and 4751 and 4624 and 4813 and 5010 and 4838 and 4937
W84A total (raw [3H]dopamine uptake counts) (∆-hDAT W84A; MRS7292 0.37 µM): 4894 and 4668 and 4952 and 4517 and 4587 and 4491 and 5700 and 5202 and 4820
W84A total (raw [3H]dopamine uptake counts) (∆-hDAT W84A; MRS7292 1.11 µM): 4984 and 5198 and 4980 and 4949 and 4430 and 4563 and 5130 and 4679 and 4795
W84A total (raw [3H]dopamine uptake counts) (∆-hDAT W84A; MRS7292 3.33 µM): 4301 and 4523 and 4569 and 4697 and 4581 and 4993 and 4757 and 5251 and 4774
W84A total (raw [3H]dopamine uptake counts) (∆-hDAT W84A; MRS7292 10 µM): 4768 and 4277 and 4629 and 4852 and 4916 and 4947 and 5164 and 4713 and 5124
W84A total (raw [3H]dopamine uptake counts) (∆-hDAT W84A; MRS7292 30 µM): 3395 and 3824 and 4400 and 4392 and 4159 and 3949 and 4924 and 4868 and 4552
effect of mutation on potency of MRS7292 (inhibition of dopamine uptake) (∆-hDAT W84A; W84A versus ∆-hDAT): severely compromises the potency; also recorded: severe loss of MRS7292 activity
I390L-V364I total (∆-hDAT V364I/I390L): 85 and 69 and 75 and 62 and 48 and 60 and 76 and 66
D385A total (∆-hDAT D385A): 286 and 316 and 337 and 362 and 408 and 403 and 257 and 320
W84C total (raw [3H]dopamine uptake counts) (∆-hDAT W84C; MRS7292 1e-6 µM): 4594 and 4467 and 4710 and 3850 and 4193 and 4029 and 4760 and 5939 and 5408
W84C total (raw [3H]dopamine uptake counts) (∆-hDAT W84C; MRS7292 0.041 µM): 5542 and 4901 and 4879 and 3714 and 3791 and 3749 and 5161 and 5312 and 5150
W84C total (raw [3H]dopamine uptake counts) (∆-hDAT W84C; MRS7292 0.123 µM): 5015 and 4917 and 5068 and 3749 and 3676 and 3489 and 6082 and 6141 and 5806
W84C total (raw [3H]dopamine uptake counts) (∆-hDAT W84C; MRS7292 0.37 µM): 4864 and 5475 and 5004 and 3395 and 4058 and 4217 and 6996 and 6040 and 6103
W84C total (raw [3H]dopamine uptake counts) (∆-hDAT W84C; MRS7292 1.11 µM): 4560 and 4192 and 4804 and 2868 and 3597 and 3884 and 6157 and 6005
W84C total (raw [3H]dopamine uptake counts) (∆-hDAT W84C; MRS7292 3.33 µM): 5290 and 5001 and 5041 and 3941 and 4001 and 3991 and 5807 and 6342 and 6018
W84C total (raw [3H]dopamine uptake counts) (∆-hDAT W84C; MRS7292 10 µM): 5439 and 5725 and 4868 and 3830 and 4200 and 4303 and 5849 and 6416 and 6207
W84C total (raw [3H]dopamine uptake counts) (∆-hDAT W84C; MRS7292 30 µM): 4716 and 4588 and 4467 and 3448 and 3565 and 3579 and 4954 and 3057 and 4610
effect of mutation on potency of MRS7292 (inhibition of dopamine uptake) (∆-hDAT W84C; W84C versus ∆-hDAT): severely compromises the potency; also recorded: severe loss of MRS7292 activity
Y394F total (raw [3H]dopamine uptake counts) (∆-hDAT Y394F; MRS7292 1e-6 µM): 1962 and 2141 and 2109 and 2218 and 1876 and 2149 and 2315 and 2380 and 2515
Y394F total (raw [3H]dopamine uptake counts) (∆-hDAT Y394F; MRS7292 0.041 µM): 2021 and 1947 and 2451 and 1672 and 1475 and 1990 and 5167 and 4746
Y394F total (raw [3H]dopamine uptake counts) (∆-hDAT Y394F; MRS7292 0.123 µM): 2135 and 2187 and 2249 and 1538 and 1496 and 1463 and 3048 and 2825 and 2648
Y394F total (raw [3H]dopamine uptake counts) (∆-hDAT Y394F; MRS7292 0.37 µM): 2258 and 2255 and 2215 and 1771 and 1434 and 1467 and 2327 and 2753 and 2672
Y394F total (raw [3H]dopamine uptake counts) (∆-hDAT Y394F; MRS7292 1.11 µM): 1683 and 2000 and 1961 and 1802 and 1518 and 1933 and 2789 and 2557 and 2651
Y394F total (raw [3H]dopamine uptake counts) (∆-hDAT Y394F; MRS7292 3.33 µM): 2058 and 2080 and 2545 and 1969 and 2086 and 2231 and 2762 and 2184 and 1914
Y394F total (raw [3H]dopamine uptake counts) (∆-hDAT Y394F; MRS7292 10 µM): 2191 and 2728 and 2379 and 1871 and 1698 and 1883 and 2721 and 2825 and 2576
Y394F total (raw [3H]dopamine uptake counts) (∆-hDAT Y394F; MRS7292 30 µM): 1926 and 2280 and 2146 and 1689 and 1287 and 1345 and 2421 and 2231 and 2505
effect of mutation on potency of MRS7292 (inhibition of dopamine uptake) (∆-hDAT Y394F; Y394F versus ∆-hDAT): diminishes the potency; also recorded: severe loss of MRS7292 activity

Source: paper PMC11324517 (Nature, 2024)
